Laboratory results published in US5686486A, “4-hydroxy-benzopyran-2-ones and 4-hydroxy-cycloalkyl[b]pyran-2-ones useful to treat retroviral infections” (priority 1995, dated 1997).
Where “and” joins values, the source holds several entries; their conditions need not be identical. Equal values may be shown once.

What was measured:
HIV-1 protease [1] = target: T1, HIV-1 protease (Human immunodeficiency virus type 1 group M subtype B, UniProt P04585); experiment: biochemical; conditions: for inhibition at 0.37 µM: read-out: HIV-1 Protease % Inhib, dose 0.370 uM; for inhibition at 1.1 µM: read-out: HIV-1 Protease % Inhib, dose 1.100 uM; for inhibition at 30 µM: read-out: HIV-1 Protease % Inhib, dose 30.000 uM
In short: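 Percent inhibition derived from fluorescent cleavage product separated by filtration after streptavidin-bead capture of intact biotin/FITC substrate. Reaction: enzyme (10 μl, 0.1 μM stock) with substrate (20 μl, 0.2 μM stock) and compound, 1 h at room temperature in dark, pH 5.5 acetate buffer with 1.0 M NaCl and 0.05% NP-40.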

HIV-1 protease [2] = target: T1, HIV-1 protease; experiment: biochemical; conditions: read-out: HIV-1 FITC KI
In short: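 Enzyme (40 nM stock) and substrate (200 μM stock) incubated with inhibitor, 24–48 two-fold serial concentrations, for 90 min at room temperature, then quenched with avidin beads. Nonlinear least-squares analysis gives Ki; a known-Ki inhibitor validates each run.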

HIV-1IIIB = experiment: inhibition of retroviral replication in HIV-1IIIB infected human T-cell lines (MT4 and H9); assay type: cell-based; conditions: e.g.
Experimental: Several compounds of the present invention, such as N-[3-[cyclopropyl(5,6,7,8,9,10-hexahydro-4-hydroxy-2-oxo-2H-cycloocta[b]pyran-3-yl)methyl]phenyl]-4-fluorobenzenesulfonamide and 4-cyano-N-[3-[cyclopropyl(5,6,7,8,9,10-hexahydro-4-hydroxy-2-oxo-2H-cycloocta[b]pyran-3-yl)methyl]phenyl]-benzenesulfonamide were tested in known human cell lines, such as human T-cell lines, e.g., MT4 and H9, which were infected with HIV-1IIIB, and certain of these compounds were further tested in peripheral blood mononuclear cells (PBMC), which were infected with HIV-1JRCSF (a clinical isolate).

HIV protease = conditions: cited from earlier work
HIV-1 = conditions: single dose; cited from earlier work

SMILES	HIV-1 Protease % Inhib (HIV-1 protease [1]; dose 0.123 uM) [%]	HIV-1 Protease % Inhib (HIV-1 protease [1]; dose 3.300 uM) [%]	HIV-1 Protease % Inhib (HIV-1 protease [1]; dose 10.000 uM) [%]	inhibition at 0.37 µM (HIV-1 protease [1]) [%]	inhibition at 1.1 µM (HIV-1 protease [1]) [%]	inhibition at 30 µM (HIV-1 protease [1]) [%]	Ki (HIV-1 protease [2])	inhibition of retroviral replication (HIV-1IIIB)	inhibition at 0.123 µM (HIV-1 protease [1]; read-out: HIV-1 Protease % Inhib, dose 0.123 uM) [%]	inhibition at 3.3 µM (HIV-1 protease [1]; read-out: HIV-1 Protease % Inhib, dose 3.300 uM) [%]	inhibition at 10 µM (HIV-1 protease [1]; read-out: HIV-1 Protease % Inhib, dose 10.000 uM) [%]	HIV protease inhibition (HIV protease)	effect on HIV-1 replication and viral transmission (HIV-1)
N#Cc1ccc(S(=O)(=O)Nc2cccc(C(c3c(O)c4c(oc3=O)CCCCCC4)C3CC3)c2)cc1 (centres unmarked) [Example 262, 4-Cyano-N-[3-[cyclopropyl(5,6,7,8,9,10-hexahydro-4-hydroxy-2-oxo-2H-cycloocta[b]pyran-3-yl)methyl]phenyl]-benzenesulfonamide]	83.32	121.87	119.5	103	113	115	1.4 nM and 0.44 nM and 1.01 nM and 0.6 nM	found to inhibit retrovital replication	–	–	–	–	–
O=c1oc2c(c(O)c1C(c1cccc(NS(=O)(=O)c3ccc(F)cc3)c1)C1CC1)CCCCCC2 (centres unmarked) [Example 268, N-[3-[Cyclopropyl(5,6,7,8,9,10-hexahydro-4-hydroxy-2-oxo-2H-cycloocta[b]pyran-3-yl)methyl]phenyl]-4-fluoro-benzenesulfonamide]	–	–	–	88	96.2	101	–	found to inhibit retrovital replication	71.2	97.6	101	–	–
CC(=O)CC(c1ccccc1)c1c(O)c2ccccc2oc1=O (stereo not drawn) [warfarin, 3-α-phenyl-β-acetylethyl-4-hydroxycoumarin]	–	–	–	–	–	–	–	–	–	–	–	displayed HIV protease inhibition	inhibitory effect
